Assay results published in patent US20100204258A1, “METHODS AND COMPOSITIONS FOR MODULATING INSULIN SECRETION AND GLUCOSE METABOLISM” (The Trustees of Columbia University in the City of New York, priority 2007, published 2010).
“Also recorded” adds a separate entry of the source.

Key:
[1] = system: diabetic Lewis rats; test: IPGTT in streptozotocin-induced diabetic Lewis rats; format: in vivo, rat
Method: Experimental animals. All animal studies were reviewed and approved by the Institutional Animal Care and Use Committee (IACUC) at Columbia University's Medical School. All experiments were performed in accordance with the IACUC approved procedures. Normal male Lewis rats (100-400 grams) were obtained from Taconic (Taconic Inc., Germantown, N.Y.) and were housed under conditions of controlled humidity (55±5%), temperature (23±1° C.), and lighting (light on: 06.00-18.00 hours) with free access to standard laboratory rat chow and water. Rats were handled daily to minimize nonspecific stress for more than 7 days before the experiments began. In most experiments, it was necessary to measure blood glucose in fasting animals. For these groups, food was removed at the beginning of the light cycle, 6 hours before glucose levels were measured. Diabetes mellitus was induced by intraperitoneal injection of streptozotocin (Sigma Chemical Co., St. Louis, Mo.) (25 to 50 mg/kg) to animals (100 to 150 grams) that had been fasted 4 hours to enhance the effectiveness of STZ treatment.
The STZ solution was prepared fresh by dissolving it in 0.1 M citrate buffer (pH 5.5) and terminally sterile filtered. Control Lewis age and weight matched rats received a 0.5 ml/kg citrate vehicle alone via intraperitoneal injection. Sixty minutes prior to intraperitoneal glucose tolerance testing (IPGTT), anesthesia of male Lewis rats was induced with isoflurane (3-4% in oxygen) and maintained with 1-2% isoflurane in oxygen. Anaesthetized rats were administered TBZ at the indicated dose by intravenous (i.v.) injection using the penile vein. TBZ was dissolved in neat sterile dimethylsulfoxide (DMSO) and diluted (always more than 10 fold) in sterile saline. Rats received injections of vehicle alone (10% DMSO in saline) or reserpine (in saline). Animals recovered fully before receiving IPGTT.
Blood glucose, insulin, glucagon and intraperitoneal glucose tolerance tests measurements. Blood samples were collected from a superficial blood vessel in the tails of the rats following 6 hours of fasting between 12:00 noon and 2:00 p.m. The fasting blood glucose (BG) levels of the rats were measured using an Accu-Check blood glucose monitoring system (Roche Diagnostics, Sommerville, N.J.). […] BG concentrations were measured immediately on these samples and the remainder processed.
Plasma was immediately separated by centrifugation at 3000×g for 15 minutes and then stored at −20° C. until analysis. […] The area under the IPGTT glucose concentration×time curve (AUCIPGTT) was calculated by the trapezoidal rule. The area under the insulin or glucagon concentration×time curve (AUC INS or AUC GCG) was calculated in a similar manner.

[2] = system: human islets; test: Glucose-stimulated insulin secretion of purified human cadaveric islets ex vivo; format: cell-based; conditions: absence of high glucose stimulation; data not shown
Method: Human islet tissue and glucose-stimulated insulin secretion. The islet tissue used in these studies was obtained with institutional review board approval. Pancreas digestion and islet isolation were performed using minor modifications of the Edmonton purification protocol. (Shapiro, […] al. “Islet […] in seven patients with type I diabetes mellitus using a glucocortoid-free immunosuppressive regimen.” New England Journal of Medicine 343(4):230-8, (2000)) The determination of islet cell mass, viability, and purity were also performed. Purified islets were cultured in CMRL 1066 culture media with 10% fetal bovine serum at 37° C. in humidified air (5% CO2) for 18 to 24 hours. The human islet insulin secretory response was performed according to a procedure described by the Edmonton group. (Id.) Briefly, after an overnight culture, islets were incubated with either low or high concentrations of glucose for 2 hours at 37° C. and 5% CO2. The supernatant was collected for insulin measurement. Insulin concentrations in these experiments were analyzed with a human insulin enzyme-linked immunosorbent assay (ELISA) kit (ALPCO Insulin ELISA kit, Windham, N.H.). In some experiments TBZ, DTBZ or epinephrine was added to the cultures before glucose stimulation.

[3] = system: plasma insulin and glucagon; test: Plasma insulin and glucagon (ELISA) during IPGTT; format: in vivo, rat
Method: Blood glucose, insulin, glucagon and intraperitoneal glucose tolerance tests measurements. Blood samples were collected from a superficial blood vessel in the tails of the rats following 6 hours of fasting between 12:00 noon and 2:00 p.m. The fasting blood glucose (BG) levels of the rats were measured using an Accu-Check blood glucose monitoring system (Roche Diagnostics, Sommerville, N.J.). Intraperitoneal glucose tolerance tests (IPGTT) were performed in 6 hour fasting un-anaesthetized animals. Briefly, after baseline BG measurements, animals received an intraperitoneal (i.p.) injection of 1 gram glucose/kilogram body weight. To minimize stress during the procedure, rats were handled by the same operator during acclimatization and later during weighing and IPGTT. Blood samples (approximately 30 μl) were collected at baseline and then again 15, 30, 60, 90, and 120 minutes following i.p. glucose administration. BG concentrations were measured immediately on these samples and the remainder processed.
Plasma was immediately separated by centrifugation at 3000×g for 15 minutes and then stored at −20° C. until analysis. Insulin and glucagon concentration measurements in rat plasma were performed by ELISA as per the manufacturer's instructions using kits from Linco Research Inc. (St. Charles, Mo.) and Alpco Diagnostics (Salem, N.H.), respectively. To validate the test, saline injections were performed by the same method. […] The area under the IPGTT glucose concentration×time curve (AUCIPGTT) was calculated by the trapezoidal rule. The area under the insulin or glucagon concentration×time curve (AUC INS or AUC GCG) was calculated in a similar manner.

## COc1cc2c(cc1OC)C1CC(=O)C(CC(C)C)CN1CC2 (stereo not shown) [TBZ, tetrabenazine]
[1]; STZ-diabetic Lewis rats, 1.6 μg/gm, vs vehicle
  blood glucose excursion during IPGTT: reduces the blood glucose excursion
[1]; STZ-diabetic rats, around sixty minutes following i.v. injection
  blood glucose levels before i.p. glucose challenge: returned to control or near normal levels
[1]; STZ-diabetic rats, following glucose challenge
  area under the curve in the IPGTT: smaller area under the curve
[1]; animals with initial untreated AUC IPGTT>50,000 minutes×mg/dl, data not shown
  glucose tolerance-enhancing effects: not observed
[2]
  insulin secretion of human islets: not observed
[3]; TBZ 1.6 μg/gm and glucose challenge, vs vehicle treated controls
  plasma insulin levels during IPGTT: alters; also recorded: greater
[3]; four out of five experiments
  AUC INS with treatment relative to AUC INS of control animals: greater than two fold
[3]; i.v. TBZ 1.6 μg/gm and glucose challenge, relative to controls
  plasma glucagon levels during IPGTT: alters; also recorded: generally lower
[3]; prior to glucose challenge, not statistically significant
  baseline plasma concentrations of glucagon: sometimes lower than controls
[3]; three of five experiments
  AUC GCG, less than that of control animals: 75%-85%
